Paper PMC9075979 (Molecular Therapy, 2022)

Target: Omicron variant RBD or S1 domains-hACE2 binding (Homo sapiens, UniProt Q9BYF1)
Sequence (Q9BYF1 18-740, stated change not applied): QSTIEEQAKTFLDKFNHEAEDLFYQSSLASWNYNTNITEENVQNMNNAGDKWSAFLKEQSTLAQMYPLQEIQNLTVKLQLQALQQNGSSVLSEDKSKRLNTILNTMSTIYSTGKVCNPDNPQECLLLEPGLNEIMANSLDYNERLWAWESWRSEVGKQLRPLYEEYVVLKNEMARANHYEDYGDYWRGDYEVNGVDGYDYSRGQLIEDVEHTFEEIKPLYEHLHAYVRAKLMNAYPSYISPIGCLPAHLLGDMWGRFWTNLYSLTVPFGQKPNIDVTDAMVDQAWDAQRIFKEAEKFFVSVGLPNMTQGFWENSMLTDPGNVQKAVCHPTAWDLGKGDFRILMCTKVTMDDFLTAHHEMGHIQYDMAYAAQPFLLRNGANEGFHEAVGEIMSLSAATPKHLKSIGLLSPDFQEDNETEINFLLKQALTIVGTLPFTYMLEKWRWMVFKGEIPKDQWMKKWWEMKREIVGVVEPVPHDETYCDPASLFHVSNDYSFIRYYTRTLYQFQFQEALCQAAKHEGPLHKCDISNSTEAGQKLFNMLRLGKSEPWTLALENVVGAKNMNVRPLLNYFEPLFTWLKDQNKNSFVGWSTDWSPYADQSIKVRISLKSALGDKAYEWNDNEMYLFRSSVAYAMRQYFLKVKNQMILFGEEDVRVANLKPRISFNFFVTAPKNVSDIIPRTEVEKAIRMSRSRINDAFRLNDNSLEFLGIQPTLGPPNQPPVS

c1ccc(-c2ccc(C(c3ccccc3)n3ccnc3)cc2)cc1 (stereo not shown) [bifonazole]
binding of Omicron variant RBD or S1 bioreporters to hACE2: significantly reduced binding
